# According to patent US4464354A, “(3,4-c)-Pyrido psoralens, process of preparation, application in cosmetology and therapeutics, and cosmetological and pharmaceutical composition with them” (Institut National de la Sante et de la Recherche Medicale, priority 1982, dated 1984):
# Entries after “also recorded” stand apart in the source; their conditions may differ. Where two headings read alike, the source gives them in different places.
# Assays:
# [1] = mice, after exposure to light in the near ultraviolet range around 365 nm; cited from earlier work
# [2] = background statement, cited from earlier work
# DNA [3] = conditions: background statement; cited from earlier work
# [4] = tested on: Saccharomyces cerevisiae yeast; experiment: induction of lethal effects in yeast with 365 nm irradiation (UVA); assay type: cell-based; conditions: for photodynamic activity (oxygen dependent) on induction of lethal damages: yeast
# Description: (§1) This photobiological activity has in effect been defined by the induction of lethal effects, the induction of "small colony" cytoplasmic mutations (damage in the mitochondrial DNA) and the induction of nuclear mutations (reverse and forward). The experiments were conducted in the customary manner in conformity with the following references:
# Thus, the dose of UVA must be between 2.5 and 5 times weaker in the case of compounds 1a and 1b than in the case of 8-MOP to attain the same survival rate.
# psoriatic plaque [5] = experiment: therapeutic test comparing 8-methoxypsoralen and product 1b; assay type: in vivo, human; conditions: 10^-2 M; for deterioration after end of treatment: one patient without further treatment
# Text: The concentrations of 8-MOP and product 1b were 10^-2 M in the same excipient as that used in the previous therapeutic test. Both preparations were applied on two rounded zones 3 cm in diameter, located on the same psoriatic plaque and were irradiated according to the same procedure of gradually increasing ultraviolet irradiation until a maximum of 10 J/cm2 per treatment.
# [6] = tested on: DNA of cells of the wild type; experiment: direct biochemical verification of cross-linking in DNA of cells treated and irradiated at 365 nm; assay type: cell-based, yeast; conditions: for form of DNA after renaturation (cross-links): 10^-5 M, 365 nm, two doses (30% and 5% survival rate)
# Text: Indeed, DNA of cells of the wild type were extracted immediately after treatment with products 1a, 1b at a concentration of 10^-5 M and irradiation with two doses of radiation at 365 nm (30% and 5% survival rate). […] If the DNA contains cross-links it renatures itself and is found in the double chain form separable by gradient density from single chain DNA.
# [7] = tested on: V79 chinese hamster cells; experiment: antiproliferatory effect: inhibition of colony formation of V79 cells; assay type: cell-based; conditions: 5×10^-6 M
# Description: The photobiological activity of the two monofunctional componds 1a and 1b have been studied in mammalian cells in vitro in order to determine their antiproliferatory effect.
# A diploid strain of V79 chinese hamster cells were used.
# The action of the compounds on cell survival (i.e. the antiproliferatory effect) was determined by measuring their power to inhibit the capacity of cells to form colonies. The technique used is that described by C.
# psoriasis = conditions: human, in vivo; cited from earlier work
# normal human skin = experiment: erythema test on normal human skin (forearm); assay type: in vivo; conditions: for erythematogenicity (conclusion): in vivo
# Description: The clinical and therapeutic activity of compounds 1a and 1b has been also measured on human skin. 10 mg of compounds 1a and 1b were diluted in 2 g of a purified lanolin commercially available under the name ROC hydrocerine which was made liquid by heating to 60° C. This local preparation was first tested on normal human skin (of the forearm). An amount of 10 micrograms/cm2 of products 1a and 1b was applied to a circular cutaneous surface 3 cm in diameter. The two products were left on the skin for 2 hours to insure a sufficient cutaneous penetration. […] The same experiment was repeated a second time with irradiation of 20 J/cm2 through a glass plate in order to filter out all the ultraviolet B radiation. […] This erythema, slightly apparent, continued for 18 days. […] The […] result of the reflective photoplethysmograph were totally identical for products 1a and 1b. […] The […] only appeared in doses of irradiation where are twice that customarily used in a therapeutic treatment.
# [8] = spectroscopic absorption properties; assay type: physicochemical; conditions: compared with psoralen
# Text: Compounds 1a and 1b have similar spectroscopic properties which differ markedly with respect to those of psoralen.
# [9] = mutagenicity (general statements)
# synthesis of RNA = experiment: photosensitizer effect on RNA synthesis in human fibroblasts; assay type: cell-based; conditions: UVA 365 nm
# Text: (§2) (F. Bordin, F. Baccichetti and L. Musajo, Experientia 28, 148 (1972)).
# (§3) The cells cultivated in Petri dishes having a minimum Eagle medium with 10% embryonic calf serum were marked by precursors which were specific to the exponential phase of growth. The rates of synthesis were estimated by measuring the incorporation of the radioactive precursors in the acid-precipitable material (see S. Nocentini, Biochim. Biophys., Acta 521, 160 (1978)).
# normal skin = experiment: pigmentogenic properties on normal skin; assay type: in vivo, human; conditions: 0.5%
# Text: The pigmentogenic properties of products 1a and 1b have been tested on normal skin at a concentration of 0.5%.
# DNA [10] = experiment: photoaffinity for DNA in vivo; assay type: cell-based, yeast
# psoriatic plaque [11] = experiment: therapeutic test on psoriatic plaque, products 1a and 1b; assay type: in vivo, human
# Description: 10 mg of compounds 1a and 1b were diluted in 2 g of a purified lanolin commercially available under the name ROC hydrocerine which was made liquid by heating to 60° C. Products 1a and 1b have also been tested in the same excipient on a high inflammatory psoriatic plaque. These two products were applied to surfaces having a 3 cm diameter. On a third surface the excipient alone was applied. […] The products and the lanolin alone were applied 2 hours before irradiation. […] This whitening was practically as fast in the zones treated with products 1a and 1b. The zone treated with lanolin alone remained unchanged.
# synthesis of DNA = experiment: photosensitizer effect on DNA synthesis in human fibroblasts; assay type: cell-based; conditions: UVA 365 nm
# Text: as §2, §3
# DNA [12] = experiment: formation of cross-links in DNA (general statements); assay type: biochemical; conditions: from induction of cytoplasmic and nuclear mutations
# yeast mutant pso2 = experiment: sensitivity of yeast mutant pso2 versus wild type to photo-addition
# [13] = tested on: haploid strain of Saccharomyces cerevisiae yeast; experiment: induction of nuclear mutations: His+ reversions; assay type: cell-based; conditions: 5×10^-6 M, same survivor rate
# Description: as §1
# The induction of nuclear mutations (reversions and "forward" mutations) has been determined according to procedures described in the above-mentioned articles.
# mitochondrial DNA = experiment: induction of "small colony" cytoplasmic mutations; assay type: cell-based, Saccharomyces cerevisiae; conditions: in 10% of the survivors
# Description: as §1
# If the induction of cytoplasmic mutations is considered as a function of the survivors, the compounds 1a and 1b which are monofunctional derivatives of psoralen, show in 10% of the survivors a rate of induction of cytoplasmic mutation greater than 50%.
# [14] = tested on: Saccharomyces cerevisiae yeast; experiment: induction of forward mutations (resistance to canavanine); assay type: cell-based
# Description: as §1, with “references: […]” for “references:”
# [15] = 30 micrograms/cm2, by the tenth treatment
# [16] = 30 micrograms/cm2, from the fourth treatment
# [17] = 10 micrograms/cm2, UVA 20 J/cm2
smiles,measurement,setting,value
COc1c2ccoc2cc2oc(=O)ccc12 [5-methoxypsoralen],carcinogenicity,[1],carcinogenic in mice
same,mutagenic activity and carcinogenesis in animals,[2],high mutagenic activity and carcinogenesis in animals
same,mutagenic activity and carcinogenesis in animals,[2]; listed as 5-methoxy psoralen,mutagenic
same,capability of forming cross-links in DNA,DNA [3],capable of forming cross-links in the DNA
"COc1c2occc2cc2ccc(=O)oc12 [8-methoxypsoralen, reference compound]",photodynamic activity (oxygen dependent) on induction of lethal damages,[4],comparable
same,deterioration after end of treatment,psoriatic plaque [5],rapid deterioration
same,form of DNA after renaturation (cross-links),[6],cross-linked double strand DNA
same,LD10 (dose which leaves 10% survive),[7]; UVA,3800 J/cm2
same,mutagenic activity and carcinogenesis in animals,[2],high mutagenic activity and carcinogenesis in animals
same,capability of forming cross-links in DNA,DNA [3],capable of forming cross-links in the DNA
"Cc1cc2c(ccc3c(C)cc(=O)oc32)o1 [4,5'-dimethylangelicine, reference compound]",photodynamic activity (oxygen dependent) on induction of lethal damages,[4],comparable
"CCOC(=O)c1cc2cc3ccoc3cc2oc1=O [3-carbethoxypsoralen, reference compound]",carcinogenicity,[1],completely safe from this point of view
same,photodynamic activity (oxygen dependent) on induction of lethal damages,[4],different
same,therapeutic activity in patients having psoriasis,psoriasis,having a therapeutic activity in respect to patients having psoriasis
same,erythematogenicity (conclusion),normal human skin,is not
"Cc1c2occc2cc2c1oc(=O)c1cnccc12 [Compound 1b, Methyl-7-pyrido (3,4-c) furo (3,2-g) coumarin]",coefficient of molecular absorption at 365 nm,[8],notably a higher coefficient of molecular absorption at 365 nm
same,mutagenicity compared with 3-carbethoxypsoralen (conclusion),[9],less mutagenic than 3-carbethoxypsoralen
same,"photoreactivity compared with 4,5',8-trimethylpsoralen (conclusion)",[4],"close to that of 4,5'-8-trimethylpsoralen"
same,activity on cell survival relative to 8-MOP,"[4]; 5×10^-6 M, survival curves",5 times
same,"activity compared with 4,5',8-trimethylpsoralen",[4]; equimolar 5×10^-6 M,"activity close to that of 4,5', 8-trimethylpsoralen"
same,photodynamic activity (oxygen dependent) on induction of lethal damages,[4],do not exert on the yeast photodynamic activity
same,inhibition capacity (RNA) compared with 3-CPs,synthesis of RNA,much more than 3-CPs
same,inhibition capacity (RNA) compared with 8-MOP,synthesis of RNA,slightly more powerful than 8-MOP
same,"pigmentogenic properties, 1b versus 1a",normal skin,superior to those of product 1a; also recorded: more pigmentogenic than product 1a
same,pigmentation of normal skin,"normal skin; three normal patients, total UVA doses of 140 J/cm2",Visible pigmentation was observed on three normal patients tested with product 1b in all three cases
same,deterioration after end of treatment,psoriatic plaque [5],practically no deterioration
same,antipsoriatic effectiveness compared with 8-methoxypsoralen,"psoriatic plaque [5]; three patients, up to 10 J/cm2 per treatment",more effective than 8-methoxypsoralen
same,form of DNA after renaturation (cross-links),[6],remains in single chain form after renaturation
same,functional type (mono/bifunctional),[6]; pso2 mutant and direct examination of DNA,mono functional type
same,photoaffinity for DNA in vivo compared with 3-CPs,DNA [10],makedly much high than that of monofunctional furocoumarin 3-CPs
same,photoaffinity for DNA in vivo relative to 8-MOP,DNA [10],~20 times
same,photoaffinity in respect to DNA compared with 8-MOP (conclusion),DNA [10],markedly greater than that of 8-MOP
same,"antipsoriatic action, third patient",psoriatic plaque [11]; 30 μg/cm2 two hours before UVA,complete whitening of the psoriasis
same,"antipsoriatic action, two of three patients",psoriatic plaque [11]; 30 μg/cm2 two hours before UVA,moderately better than product 1a
same,"pigmentogenic effect, two of three patients",psoriatic plaque [11]; 30 μg/cm2 two hours before UVA,more pigmentogenic
same,antipsoriatic action of product 1b versus 1a (overall),"psoriatic plaque [11]; 10 treatments of PUVA, total dose 50 J/cm2",antipsoriatic action superior to that of product 1a
same,erythema or secondary effect during treatments,psoriatic plaque [11]; 30 micrograms/cm2,no erythema or secondary effect was observed
same,hyperpigmentation,psoriatic plaque [11]; 30 micrograms/cm2,"hyperpigmentation was found in the two zones, in particular the one treated with product 1b"
same,total UVA dose to complete whitening,psoriatic plaque [11]; [15],50 J/cm2
same,whitening of treated zones,psoriatic plaque [11]; [15],complete whitening of the zones treated
same,decrease of squamae,psoriatic plaque [11]; [16],slight decrease of the squamae
same,reduction of infiltration,psoriatic plaque [11]; [16],tangible reduction of the infiltration
same,antipsoriatic activity (conclusion),psoriatic plaque [11]; applied locally,good antipsoriatic activity; also recorded: best therapeutic results
same,inhibition capacity (DNA) compared with 3-CPs,synthesis of DNA,much more than 3-CPs
same,inhibition capacity (DNA) compared with 8-MOP,synthesis of DNA,slightly more powerful than 8-MOP
same,LD10 (dose which leaves 10% survive),[7]; UVA,540 J/cm2
same,considerable photosensitivity in V79 cells,[7]; UVA,considerable photosensitivity
same,relative antiproliferatory effect,[7]; UVA,"markedly more effective than compound 1a; also recorded: compared to 8-MOP, a higher antiproliferatory effect; also recorded: comparable to that of bifunctional furocoumarins"
same,diminution of cell survival in absence of radiation,[7]; no radiation,no diminution of cell survival
same,formation of cross-links in the DNA (conclusion),DNA [12],incapable of forming cross-links in the DNA
same,photoreactivity on yeast strains,yeast mutant pso2,very photoreactive
same,sensitivity of pso2 mutant compared with wild type,yeast mutant pso2; photo-addition,same sensitivity as the wild type
same,erythema at 5 J/cm2,"normal human skin; 10 micrograms/cm2, 2 hours before UVA 5 J/cm2",no precocious or delayed erythema was observed
same,duration of erythema,normal human skin; [17],18 days
same,time of appearance of erythema,normal human skin; [17],72 h
same,erythema at 20 J/cm2,"normal human skin; 10 micrograms/cm2, UVA 20 J/cm2 through glass plate",slight erythema
same,desquamation or local pain,normal human skin; UVA 20 J/cm2,no desquamation or local pain
same,systolic pulse of the capillaries at erythematic zones (reflective photoplethysmography),normal human skin; UVA 20 J/cm2,doubling of the systolic pulse
same,erythematogenicity (conclusion),normal human skin,not erythmatogenic in conditions of irradiation customarily used in human therapy; also recorded: very mildly erythmatogenic
same,His+ reversions rate compared with 3-CPs,[13],less than that observed after the treatment with 3-CPs
same,"His+ reversions rate compared with 8-MOP and 4,5',8-TMeP",[13],"very much less than that observed after treatment with the bifunctional agents 8-MOP and 4,5', 8-TMeP"
same,rate of induction of cytoplasmic mutation,mitochondrial DNA,greater than 50%
same,"forward mutations as a function of surviving fractions compared with 3-CPs, 8-MOP and 4,5',8-TMeP",[14],"markedly less mutagenic than 3-CPs and the bifunctional compounds 8-MOP and 4,5', 8-TMeP"
same,forward mutations as a function of UVA doses compared with 3-CPs,[14]; 5×10^-6 M versus 3-CPs at 5×10^-5 M,comparable to those obtained with 3-CPs at 5×10^-5 M
